ChEMBL document CHEMBL1201862, “PubChem BioAssay data set” (2004)
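The compound was tested at five concentrations on cells cultured in 96-well plates, with a 48-hour exposure period. Abbreviation: GI50, concentration required for 50% inhibition of growth.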 Calls of active or inactive are those of the source. Cut-off read from the data, not from the text of the source: active = GI50 up to about 1.1 µM and inactive = higher.

Key:
Test in all cases: growth of human tumour cells (NCI), 48 h
786-0 = system: 786-0
ACHN = system: ACHN
CAKI-1 = system: CAKI-1
HCC 2998 = system: HCC 2998
HCT-116 = system: HCT-116
HL-60 = system: HL-60
HOP-62 = system: HOP-62
HT-29 = system: HT-29
IGROV-1 = system: IGROV-1
K562 = system: K562
M14 = system: M14
MDA-N = system: MDA-N
NCI-H460 = system: NCI-H460
OVCAR-3 = system: OVCAR-3
SF-539 = system: SF-539
SK-MEL-2 = system: SK-MEL-2
SNB-75 = system: SNB-75
TK-10 = system: TK-10
A498 = system: A498

Row | SMILES | GI50 (786-0) | GI50 (ACHN) | GI50 (CAKI-1) | GI50 (HCC 2998) | GI50 (HCT-116) | GI50 (HL-60) | GI50 (HOP-62) | GI50 (HT-29) | GI50 (IGROV-1) | GI50 (K562) | GI50 (M14) | GI50 (MDA-N) | GI50 (NCI-H460) | GI50 (OVCAR-3) | GI50 (SF-539) | GI50 (SK-MEL-2) | GI50 (SNB-75) | GI50 (TK-10) | GI50 (A498)
1 | O=C1OC(C(O)CO)C(O)=C1O (stereo not drawn) | > 100 µM (inactive) | > 100 µM (inactive) | > 100 µM (inactive) | > 100 µM (inactive) | > 100 µM (inactive) | > 100 µM (inactive) | > 100 µM (inactive) | > 100 µM (inactive) | > 100 µM (inactive) | 65.8 µM (inactive) | > 100 µM (inactive) | > 100 µM (inactive) | > 100 µM (inactive) | > 100 µM (inactive) | > 100 µM (inactive) | > 100 µM (inactive) | 99.8 µM (inactive) | > 100 µM (inactive) | –
2 | O=Cc1ccccc1B(O)O | 43.4 µM (inactive) | 19.1 µM (inactive) | 47.5 µM (inactive) | – | 43.2 µM (inactive) | 22 µM (inactive) | > 100 µM (inactive) | 18.9 µM (inactive) | 29.6 µM (inactive) | 23.1 µM (inactive) | > 100 µM (inactive) | – | > 100 µM (inactive) | 33.6 µM (inactive) | > 100 µM (inactive) | > 100 µM (inactive) | 43.8 µM (inactive) | 55.6 µM (inactive) | –
3 | Cc1ccc(C2CC(=O)CC(c3ccc(C)cc3)C23C(=O)NC(=O)NC3=O)cc1 (stereo not drawn) | > 100 µM (inactive) | > 100 µM (inactive) | > 100 µM (inactive) | > 100 µM (inactive) | > 100 µM (inactive) | > 10 µM (inactive) | 28.9 µM (inactive) | > 100 µM (inactive) | > 100 µM (inactive) | 40.4 µM (inactive) | > 100 µM (inactive) | > 100 µM (inactive) | > 100 µM (inactive) | > 100 µM (inactive) | > 100 µM (inactive) | > 100 µM (inactive) | > 100 µM (inactive) | > 100 µM (inactive) | –
4 | Cc1c(C(=O)CC(=O)C(=O)Nc2c(C(C)C)cccc2C(C)C)[n+]([O-])c2ccccc2[n+]1[O-] | 5.21 µM (inactive) | 2.52 µM (inactive) | 22 µM (inactive) | 5.14 µM (inactive) | 2.81 µM (inactive) | 2.4 µM (inactive) | 29.7 µM (inactive) | 3.56 µM (inactive) | 3.55 µM (inactive) | 6.12 µM (inactive) | 3.4 µM (inactive) | – | 2.62 µM (inactive) | 2.08 µM (inactive) | 4.43 µM (inactive) | 11.4 µM (inactive) | 14.4 µM (inactive) | 26.1 µM (inactive) | 29.4 µM (inactive)
5 | N#CCCC1(CCC#N)S(=O)(=O)OCCOS1(=O)=O | 21.6 µM (inactive) | 32.4 µM (inactive) | 40.6 µM (inactive) | – | 40.9 µM (inactive) | 23.3 µM (inactive) | < 0.01 µM (active) | 45.9 µM (inactive) | – | – | 56.8 µM (inactive) | 54.3 µM (inactive) | – | 32.1 µM (inactive) | 8.34 µM (inactive) | 42.2 µM (inactive) | 32.1 µM (inactive) | > 100 µM (inactive) | –
6 | COC(=O)Cc1cc2c(cc1C(=O)c1ccc(N)cc1)OCO2 | 5.58 µM (inactive) | – | 3.48 µM (inactive) | 0.78 µM (active) | 1.77 µM (inactive) | 2.36 µM (inactive) | 3.84 µM (inactive) | 1.09 µM (active) | 0.625 µM (active) | 0.553 µM (active) | 1.64 µM (inactive) | 0.19 µM (active) | 12.2 µM (inactive) | 0.755 µM (active) | 2.9 µM (inactive) | 0.964 µM (active) | 1.21 µM (inactive) | > 19.7 µM (inactive) | –
7 | CCCCCCCCNC(=O)C1=C(C)NC(C)=C(C(=O)NCCCCCCCC)C1 | > 100 µM (inactive) | 92.7 µM (inactive) | > 100 µM (inactive) | > 100 µM (inactive) | > 100 µM (inactive) | > 100 µM (inactive) | > 100 µM (inactive) | 82.8 µM (inactive) | > 100 µM (inactive) | > 100 µM (inactive) | > 100 µM (inactive) | 89.5 µM (inactive) | > 100 µM (inactive) | > 100 µM (inactive) | > 100 µM (inactive) | > 100 µM (inactive) | 23.2 µM (inactive) | > 100 µM (inactive) | –
8 | CC1(CO)COC(C)(C)OC1 | – | > 100 µM (inactive) | – | > 100 µM (inactive) | > 100 µM (inactive) | – | – | > 100 µM (inactive) | – | – | – | > 100 µM (inactive) | > 100 µM (inactive) | > 100 µM (inactive) | – | – | > 100 µM (inactive) | > 100 µM (inactive) | > 100 µM (inactive)
9 | CN(C)CCNC(=O)c1cccc2c(NC(CS)C(=O)O)c3ccccc3[n+](C)c12 (stereo not drawn) | 69.2 µM (inactive) | 35.5 µM (inactive) | – | 50 µM (inactive) | 41.1 µM (inactive) | – | 60.8 µM (inactive) | 99.3 µM (inactive) | 43.8 µM (inactive) | 87.9 µM (inactive) | > 100 µM (inactive) | – | 45.5 µM (inactive) | 81.3 µM (inactive) | 80.4 µM (inactive) | > 100 µM (inactive) | 41.6 µM (inactive) | > 100 µM (inactive) | 77.4 µM (inactive)
10 | O=C(O)CCSC(=O)Nc1ccccc1F | > 100 µM (inactive) | > 100 µM (inactive) | > 100 µM (inactive) | > 100 µM (inactive) | > 100 µM (inactive) | > 100 µM (inactive) | > 100 µM (inactive) | > 100 µM (inactive) | – | > 100 µM (inactive) | > 100 µM (inactive) | – | > 100 µM (inactive) | > 100 µM (inactive) | > 100 µM (inactive) | > 100 µM (inactive) | – | > 100 µM (inactive) | > 100 µM (inactive)
11 | CON(C(=O)OC(C)(C)C)c1ccccc1 | > 100 µM (inactive) | > 100 µM (inactive) | > 100 µM (inactive) | > 100 µM (inactive) | > 100 µM (inactive) | > 100 µM (inactive) | > 100 µM (inactive) | > 100 µM (inactive) | > 100 µM (inactive) | > 100 µM (inactive) | > 100 µM (inactive) | – | > 100 µM (inactive) | > 100 µM (inactive) | – | > 100 µM (inactive) | > 100 µM (inactive) | > 100 µM (inactive) | > 100 µM (inactive)
12 | O=C(CSCC(=O)N/N=C/c1cccc(C(F)(F)F)c1)N/N=C/c1cccc(C(F)(F)F)c1 | – | > 100 µM (inactive) | > 100 µM (inactive) | > 100 µM (inactive) | – | > 100 µM (inactive) | > 100 µM (inactive) | > 100 µM (inactive) | > 100 µM (inactive) | > 100 µM (inactive) | > 100 µM (inactive) | – | – | – | > 100 µM (inactive) | > 100 µM (inactive) | > 100 µM (inactive) | > 100 µM (inactive) | > 100 µM (inactive)
13 | CCCCNC(=S)Nc1nc(C(=O)NNS(=O)(=O)c2ccccc2)cs1 | > 100 µM (inactive) | 28.7 µM (inactive) | 27.7 µM (inactive) | 30.5 µM (inactive) | 26.2 µM (inactive) | – | 36.4 µM (inactive) | > 10 µM (inactive) | 24.9 µM (inactive) | 49.1 µM (inactive) | 40.1 µM (inactive) | – | – | 24.2 µM (inactive) | 33.6 µM (inactive) | 22.6 µM (inactive) | 35.6 µM (inactive) | 36 µM (inactive) | 45.2 µM (inactive)
